Assay results reported in PubChem BioAssay AID1963872 (Molecular Pharmacology Branch, DTP, NCI, 2024).
Values joined by “and” are separate entries in the source; they are usually repeats but may differ in a detail not shown here. Equal entries are not always repeated.

Tested on: KRAS patient-derived spheroids with HUVEC/MSC, viability
Experiment: Anticancer human tumor 519858-162-T-J1-PDC patient-derived colon adenocarcinoma cell line growth inhibition [KRAS2]
Details: for viability, T/C: stronger effect = lower value
Procedure, shortened: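 KRAS-mutant tumor cells were grown as spheroids with HUVEC endothelial cells and human MSCs as stroma. Targeted agents were tested alone and with KRAS pathway inhibitors. Doses started at or near clinical Cmax, or 10 microM, descending half-log.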

[1] = curve of first compound, second compound 0.1 µM
[2] = curve of first compound, second compound 0.316 µM
[3] = curve of first compound, second compound 1 µM
[4] = curve of first compound, second compound 3.16 µM
[5] = second compound 0.1 µM, first compound 0.01 µM
[6] = second compound 0.1 µM, first compound 0.0316 µM
[7] = second compound 0.1 µM, first compound 0.1 µM
[8] = second compound 0.316 µM, first compound 0.01 µM
[9] = second compound 0.316 µM, first compound 0.0316 µM
[10] = second compound 0.316 µM, first compound 0.1 µM
[11] = second compound 1 µM, first compound 0.01 µM
[12] = second compound 1 µM, first compound 0.0316 µM
[13] = second compound 1 µM, first compound 0.1 µM
[14] = second compound 3.16 µM, first compound 0.01 µM
[15] = second compound 3.16 µM, first compound 0.0316 µM
[16] = second compound 3.16 µM, first compound 0.1 µM
[17] = curve of first compound, second compound 10 µM
[18] = second compound 0.1 µM, first compound 0.316 µM
[19] = second compound 0.1 µM, first compound 1 µM
[20] = second compound 0.1 µM, first compound 3.16 µM
[21] = second compound 0.1 µM, first compound 10 µM
[22] = second compound 0.316 µM, first compound 0.316 µM
[23] = second compound 0.316 µM, first compound 1 µM
[24] = second compound 0.316 µM, first compound 3.16 µM
[25] = second compound 0.316 µM, first compound 10 µM
[26] = second compound 1 µM, first compound 0.316 µM
[27] = second compound 1 µM, first compound 1 µM
[28] = second compound 1 µM, first compound 3.16 µM
[29] = second compound 1 µM, first compound 10 µM
[30] = second compound 3.16 µM, first compound 0.316 µM
[31] = second compound 3.16 µM, first compound 1 µM
[32] = second compound 3.16 µM, first compound 3.16 µM
[33] = second compound 3.16 µM, first compound 10 µM
[34] = second compound 10 µM, first compound 0.0316 µM
[35] = second compound 10 µM, first compound 0.1 µM
[36] = second compound 10 µM, first compound 0.316 µM
[37] = second compound 10 µM, first compound 1 µM
[38] = second compound 10 µM, first compound 3.16 µM
[39] = second compound 10 µM, first compound 10 µM
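Further: compound exposure lasted seven days before readout.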
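Wherever viability, T/C is given: 100% = DMSO vehicle control viability.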

`Cn1ncnc1[C@H]1c2n[nH]c(=O)c3cc(F)cc(c23)N[C@@H]1c1ccc(F)cc1` + C=CC(=O)N1CCN(c2nc(OCC3CCCN3C)nc3c2CCN(c2cccc4cccc(C)c24)C3)CC1CC#N was tested, and the IC50 (curve of first compound, second compound 0.0316 µM) was > 0.1 µM, the IC50 [1] was > 0.1 µM and the IC50 [2] was > 0.1 µM. The IC50 [3] was > 0.1 µM, the IC50 [4] was > 0.1 µM and the viability, T/C (second compound 0.0316 µM, first compound 0.000316 µM) was 84.3%. The viability, T/C (second compound 0.0316 µM, first compound 0.001 µM) was 88.4%, the viability, T/C (second compound 0.0316 µM, first compound 0.00316 µM) was 75.1% and the viability, T/C (second compound 0.0316 µM, first compound 0.01 µM) was 89.1%. It also gave a viability, T/C (second compound 0.0316 µM, first compound 0.0316 µM) of 68.9%, a viability, T/C (second compound 0.0316 µM, first compound 0.1 µM) of 65.5% and a viability, T/C (second compound 0.1 µM, first compound 0.000316 µM) of 62.2%. The viability, T/C (second compound 0.1 µM, first compound 0.001 µM) was 74.2%, the viability, T/C (second compound 0.1 µM, first compound 0.00316 µM) was 76.6% and the viability, T/C [5] was 70.2%. For the same compound, the viability, T/C [6] was 85.9%, the viability, T/C [7] was 91.7% and the viability, T/C (second compound 0.316 µM, first compound 0.000316 µM) was 66%. For the same compound, the viability, T/C (second compound 0.316 µM, first compound 0.001 µM) was 73.8%, the viability, T/C (second compound 0.316 µM, first compound 0.00316 µM) was 74.1% and the viability, T/C [8] was 66.3%. For the same compound, the viability, T/C [9] was 78.5%, the viability, T/C [10] was 76.3% and the viability, T/C (second compound 1 µM, first compound 0.000316 µM) was 61.3%. The viability, T/C (second compound 1 µM, first compound 0.001 µM) was 75.8%, the viability, T/C (second compound 1 µM, first compound 0.00316 µM) was 59.6% and the viability, T/C [11] was 72.3%. The viability, T/C [12] was 84.2%, the viability, T/C [13] was 72.3% and the viability, T/C (second compound 3.16 µM, first compound 0.000316 µM) was 71.7%. For the same compound, the viability, T/C (second compound 3.16 µM, first compound 0.001 µM) was 67.4%, the viability, T/C (second compound 3.16 µM, first compound 0.00316 µM) was 62.3% and the viability, T/C [14] was 62.3%. The viability, T/C [15] was 59.2% and the viability, T/C [16] was 58.9%.
`COC(=O)c1ccc2c(C(=Nc3ccc(N(C)C(=O)CN4CCN(C)CC4)cc3)c3ccccc3)c(O)[nH]c2c1` + COc1cc2nc(C)nc(NC(C)c3cc(N)cc(C(F)(F)F)c3)c2cc1OC1CCOC1 was tested, and the IC50 [1] was > 10 µM, the IC50 [2] was > 10 µM and the IC50 [3] was > 10 µM. For the same compound, the IC50 [4] was > 10 µM, the IC50 [17] was 4.74 µM and the viability, T/C [6] was 71.2%. The viability, T/C [7] was 44.7%, the viability, T/C [18] was 48.3% and the viability, T/C [19] was 71.4%. It also gave a viability, T/C [20] of 85.2%, a viability, T/C [21] of 113% and a viability, T/C [9] of 59.1%. The viability, T/C [10] was 51.8%, the viability, T/C [22] was 92% and the viability, T/C [23] was 75.1%. It also gave a viability, T/C [24] of 62.1%, a viability, T/C [25] of 73.7% and a viability, T/C [12] of 64.5%. It also gave a viability, T/C [13] of 57.3%, a viability, T/C [26] of 55.1% and a viability, T/C [27] of 51.6%. For the same compound, the viability, T/C [28] was 51%, the viability, T/C [29] was 77.9% and the viability, T/C [15] was 64.3%. The viability, T/C [16] was 64.6%, the viability, T/C [30] was 50.2% and the viability, T/C [31] was 55.2%. For the same compound, the viability, T/C [32] was 66.1%, the viability, T/C [33] was 88.1% and the viability, T/C [34] was 66.2%. The viability, T/C [35] was 53.3%, the viability, T/C [36] was 56.3% and the viability, T/C [37] was 80.9%. The viability, T/C [38] was 128% and the viability, T/C [39] was 0.38%.
`CC(C)NCC(C(=O)N1CCN(c2ncnc3c2C(C)CC3O)CC1)c1ccc(Cl)cc1` (configuration not stated) was tested, and the viability, T/C (compound 0.316 µM) was 96.2% [middle of 5 runs], the viability, T/C (compound 1 µM) was 89.7% [middle of 5 runs] and the viability, T/C (compound 10 µM) was 97.3% [middle of 5 runs]. For the same compound, the IC50 (curve of compound) was > 10 µM.
For `CC(=O)OC12COC1CC(O)C1(C)C(=O)C(O)C3=C(C)C(OC(=O)C(O)C(NC(=O)OC(C)(C)C)c4ccccc4)CC(O)(C(OC(=O)c4ccccc4)C21)C3(C)C` (configuration not stated) + COc1cc2nc(C)nc(NC(C)c3cc(N)cc(C(F)(F)F)c3)c2cc1OC1CCOC1, the IC50 [1] was > 3.16 µM, the IC50 [2] was > 3.16 µM and the IC50 [3] was > 3.16 µM. The IC50 [4] was > 3.16 µM, the IC50 [17] was > 3.16 µM and the viability, T/C [5] was 123%. The viability, T/C [6] was 115%, the viability, T/C [7] was 98.3% and the viability, T/C [18] was 122%. The viability, T/C [19] was 92%, the viability, T/C [20] was 94.6% and the viability, T/C [8] was 99%. It also gave a viability, T/C [9] of 112%, a viability, T/C [10] of 99% and a viability, T/C [22] of 71.6%. For the same compound, the viability, T/C [23] was 66.9%, the viability, T/C [24] was 78.9% and the viability, T/C [11] was 91.3%. The viability, T/C [12] was 76.1%, the viability, T/C [13] was 105% and the viability, T/C [26] was 89.8%. For the same compound, the viability, T/C [27] was 110%, the viability, T/C [28] was 90.9% and the viability, T/C [14] was 72%. For the same compound, the viability, T/C [15] was 112%, the viability, T/C [16] was 76.4% and the viability, T/C [30] was 79.7%. The viability, T/C [31] was 56.1%, the viability, T/C [32] was 82.3% and the viability, T/C (second compound 10 µM, first compound 0.01 µM) was 112%. The viability, T/C [34] was 97.4%, the viability, T/C [35] was 65% and the viability, T/C [36] was 62.7%. The viability, T/C [37] was 66.5% and the viability, T/C [38] was 96.8%.
For `CC(C)NCC(C(=O)N1CCN(c2ncnc3c2C(C)CC3O)CC1)c1ccc(Cl)cc1` (configuration not stated) + C=CC(=O)N1CCN(c2nc(=O)n(-c3c(C)ccnc3C(C)C)c3nc(-c4c(O)cccc4F)c(F)cc23)C(C)C1, the IC50 [1] was > 10 µM, the IC50 [2] was > 10 µM and the IC50 [3] was > 10 µM. The IC50 [4] was > 10 µM, the IC50 [17] was > 10 µM and the viability, T/C [6] was 95.1%. It also gave a viability, T/C [7] of 103%, a viability, T/C [18] of 65.2% and a viability, T/C [19] of 69%. It also gave a viability, T/C [20] of 111%, a viability, T/C [21] of 93.2% and a viability, T/C [9] of 95.3%. The viability, T/C [10] was 83.3%, the viability, T/C [22] was 86.5% and the viability, T/C [23] was 91.9%. The viability, T/C [24] was 99.1%, the viability, T/C [25] was 119% and the viability, T/C [12] was 68.7%. The viability, T/C [13] was 105%, the viability, T/C [26] was 96.9% and the viability, T/C [27] was 102%. It also gave a viability, T/C [28] of 77.8%, a viability, T/C [29] of 72.7% and a viability, T/C [15] of 92.8%. For the same compound, the viability, T/C [16] was 90.3%, the viability, T/C [30] was 87.5% and the viability, T/C [31] was 67%. The viability, T/C [32] was 82.7%, the viability, T/C [33] was 87.5% and the viability, T/C [34] was 85.9%. It also gave a viability, T/C [35] of 73.8%, a viability, T/C [36] of 64.1% and a viability, T/C [37] of 73.9%. For the same compound, the viability, T/C [38] was 90.8% and the viability, T/C [39] was 75%.
`C=CC(=O)N1CCN(c2nc(OCC3CCCN3C)nc3c2CCN(c2cccc4cccc(C)c24)C3)CC1CC#N` (configuration not stated) was tested, and the IC50 (compound alone, run of 07/12/2021) was > 3.16 µM, the IC50 (compound alone, run of 07/19/2021) was > 3.16 µM and the IC50 (compound alone, run of 07/26/2021) was > 3.16 µM and 2.2 µM.
